Like-named read-outs stand apart in the source and are kept apart here.
How the values were obtained:
[1] = tested on: GDF8; assay: AlphaScreen SureFire p-SMAD3 (Ser423/425) assay, GDF8-stimulated cells; format: cell-based; details: Mus musculus, MPC-11; p-SMAD3 (Ser423/425) AlphaScreen in cell lysate; MPC11; GDF8 stimulation; read-out: GDF8: inhibition of GDF8 signaling, GDF pSMAD (MPC11)
Text: (§1) The p-SMAD-3 (Ser423/425) SureFire® assay has been designed to measure the phosphorylation of endogenous cellular p-SMAD-3 (Ser423/425) in cell lysates and is a system for the screening of both modulators of receptor activation (e.g. agonists and antagonists) as well as agents acting intracellularly, such as small molecule inhibitors of upstream events. The assay will measure p-SMAD-3 (Ser423/425) activation by either cloned or endogenous receptors, and can be applied to primary cells.
(§2) 96-well Assay Protocol for 293FT and RMS13 adherent cells can be carried out manually or in high throughput with liquid handling robots.
(§3) The cells (80 μL of cells for 96 well plates) were plated in collagen coated tissue culture plates in RPMI or FreeStyle medium (Invitrogen) and incubated overnight. For manual analysis, 6 plates for GDF8, 6 plates for TGFβ, and optionally 6 plates for Alk5ca(ALK5 constitutively active) were used.
(§4) The compound dilution plates were prepared as follows: 12 μL of DMSO was transferred into first column of 96-well plate, and 16 μL of DMSO was transferred into columns 2-12 of the 96-well plate. 12 μL of compound solution was transferred into first column of the DMSO-containing 96-well plate. Three-fold dilution was performed up to column 10 of the DMSO-containing 96-well plate.
(§5) The plate containing cells were treated with compounds for about 10 minutes, and then ligand was added. GDF8 or TGFb was added to plates to stimulate. 293FL cells were stimulatedfor 90 minutes at 37° C.; and RMS13 cells were stimulated for 60 minutes at 37° C. The medium was then removed from the cells, and 1× Lysis Buffer (about 25 μL) was added and the plate was gently agitated on plate shaker for 5-10 minutes.
(§6) The lysate (5 μL) was then placed into 384-well shallow plates avoiding the generation of bubbles. To this, the Reaction Buffer+Activation Buffer+AlphaScreen® Acceptor beadsmixture (5 μL) was added. The plate was sealed with adhesive cover and shielded from light (e.g., with metal foil), and agitated gently on plate shaker for 2 hours at room temperature.
(§7) Dilution buffer+AlphaScreen® Donor beads (2 μL) was then added, and the plate was intubated on the plate shaker for an additional 1½ hours. After completion, the plate was read on Synergy-4 or Enspire plate reader, using AlphaScreen® pSMAD3® settings.
(§8) Representative results for inhibition of GDF8 (data=GDF pSMAD (MPC11) (μM)) and TGF-β (data=TGF-β pSMAD (MPC-11) (μM)) signaling are shown in Table 1(A=<0.05 μM, B=0.05−<0.1 μM, C=0.1−<1.0 μM, D=>1.0 μM): […]

[2] = tested on: TGF-β; assay: AlphaScreen SureFire p-SMAD3 (Ser423/425) assay, TGF-β-stimulated cells; format: cell-based; details: Mus musculus
Text: as §1, §2, §3, §4, §5, §6, §7, §8

[3] = p-SMAD3 (Ser423/425) AlphaScreen in cell lysate, MPC-11, TGF-β stimulation, read-out: TGF-β: inhibition of TGF-β signaling, TGF-β pSMAD (MPC-11)

SMILES	IC50 [1] [nM]	IC50 [2, 3] [nM]	IC50 ([2]; MPC-11, read-out: TGF-β: inhibition of TGF-β signaling, TGF-β pSMAD (MPC-11), p-SMAD3 (Ser423/425) AlphaScreen in cell lysate, TGF-β stimulation) [nM]
Cc1cccc(-c2nc3n(c2-c2ccc4nccn4c2)CCC3)c1 [Compound 1, 6-(2-(m-tolyl)-6,7-dihydro-5H-pyrrolo[1,2-a]imidazol-3-yl)imidazo[1,2-c]pyridine]	50 to 100	100 to 1000	–
Fc1ccc(-c2nc3n(c2-c2ccc4nccn4c2)CCC3)cc1 [Compound 2]	100 to 1000	100 to 1000	–
Cc1cc(-c2nc3n(c2-c2ccc4nccn4c2)CCC3)ccc1F [Compound 3, 6-(2-(4-fluoro-3-methylphenyl)-6,7-dihydro-5H-pyrrolo[1,2-a]imidazol-3-yl)imidazo[1,2-a]pyridine]	50 to 100	100 to 1000	–
FC(F)(F)c1cccc(-c2nc3n(c2-c2ccc4nccn4c2)CCC3)c1 [Compound 4]	100 to 1000	100 to 1000	–
COc1cccc(-c2nc3n(c2-c2ccc4nccn4c2)CCC3)c1 [Compound 5]	100 to 1000	100 to 1000	–
Clc1cccc(-c2nc3n(c2-c2ccc4nccn4c2)CCC3)c1 [Compound 6, 6-(2-(3-chlorophenyl)-6,7-dihydro-5H-pyrrolo[1,2-a]imidazol-3-yl)imidazo[1,2-a]pyridine]	100 to 1000	100 to 1000	–
Fc1cccc(-c2nc3n(c2-c2ccc4nccn4c2)CCC3)c1 [Compound 7, 6-(2-(3-fluorophenyl)-6,7-dihydro-5H-pyrrolo[1,2-c]imidazol-3-yl)imidazo[1,2-c]pyridine]	100 to 1000	> 1000	–
Fc1ccccc1-c1nc2n(c1-c1ccc3nccn3c1)CCC2 [Compound 8]	100 to 1000	100 to 1000	–
Fc1ccc(-c2nc3n(c2-c2ccc4nccn4c2)CCC3)c(F)c1 [Compound 9]	< 50	100 to 1000	–
Fc1ccc(-c2nc3n(c2-c2ccc4nccn4c2)CCC3)cc1F [Compound 10]	100 to 1000	> 1000	–
Fc1cccc(F)c1-c1nc2n(c1-c1ccc3nccn3c1)CCC2 [Compound 11]	100 to 1000	> 1000	–
Fc1cc(F)c(-c2nc3n(c2-c2ccc4nccn4c2)CCC3)cc1F [Compound 12]	< 50	100 to 1000	–
Fc1cc(-c2nc3n(c2-c2ccc4nccn4c2)CCC3)cc(F)c1F [Compound 13]	100 to 1000	> 1000	–
Fc1cc(F)c(-c2nc3n(c2-c2ccc4ncnn4c2)CCC3)cc1F [Compound 14, 6-(2-(2,4,5-trifluorophenyl)-6,7-dihydro-5H-pyrrolo[1,2-a]imidazol-3-yl)-[1,2,4]triazolo[1,5-a]pyridine]	< 50	100 to 1000	–
Fc1ccc(-c2nc3n(c2-c2ccc4ncnn4c2)CCC3)c(F)c1F [Compound 15, 6-(2-(2,3,4-trifluorophenyl)-6,7-dihydro-5H-pyrrolo[1,2-a]imidazol-3-yl)-[1,2,4]triazolo[1,5-a]pyridine]	100 to 1000	> 1000	–
Fc1cc(-c2nc3n(c2-c2ccc4ncnn4c2)CCC3)cc(F)c1F [Compound 16, 6-(2-(3,4,5-trifluorophenyl)-6,7-dihydro-5H-pyrrolo[1,2-a]imidazol-3-yl)-[1,2,4]triazolo[1,5-a]pyridine]	100 to 1000	> 1000	–
Fc1cc(F)c(F)c(-c2nc3n(c2-c2ccc4ncnn4c2)CCC3)c1 [Compound 17, 6-(2-(2,3,5-trifluorophenyl)-6,7-dihydro-5H-pyrrolo[1,2-a]imidazol-3-yl)-[1,2,4]triazolo[1,5-a]pyridine]	100 to 1000	> 1000	–
Fc1cc(-c2nc3n(c2-c2ccc4ncnn4c2)CCC3)c(F)cc1Cl [Compound 18, 6-(2-(4-chloro-2,5-difluorophenyl)-6,7-dihydro-5H-pyrrolo[1,2-a]imidazol-3-yl)-[1,2,4]triazolo[1,5-a]pyridine]	100 to 1000	> 1000	–
Cc1cccc(-c2nc3n(c2-c2ccc4ncsc4c2)CCC3)n1 [Compound 364, 6-(2-(6-methylpyridin-2-yl)-6,7-dihydro-5H-pyrrolo[1,2-a]imidazol-3-yl)benzo[d]thiazole]	–	–	< 50
